Experimental data taken from US9006455B2 (Bristol-Myers Squibb Company, priority 2009, dated 2015).
Like-named read-outs stand apart in the source and are kept apart here.

System: HCV 1b genotype
Experiment: HCV Replicon assay (HCV 1b genotype)
Type: cell-based
Conditions: Hepatitis C virus, HCV 1b genotype replicon
Experimental: An HCV Replicon assay was utilized in the present disclosure, and was prepared, conducted and validated as described in commonly owned PCT/US2006/022197 and in O'Boyle et al., Antimicrob. Agents Chemother., 49(4):1346-1353 (April 2005). Assay methods incorporating luciferase reporters have also been used as described (Apath.com).
HCV-neo replicon cells and replicon cells containing resistance substitutions in the NS5A region were used to test the currently described family of compounds. The compounds were determined to have differing degrees of reduced inhibitory activity on cells containing mutations vs. the corresponding inhibitory potency against wild-type cells. Thus, the compounds of the present disclosure can be effective in inhibiting the function of the HCV NS5A protein and are understood to be as effective in combinations as previously described in application PCT/US2006/022197 and commonly owned WO 04/014852. It should be understood that the compounds of the present disclosure can inhibit multiple genotypes of HCV. […] In one embodiment, compounds of the present disclosure are inhibitory versus 1a, 1b, 2a, 2b, 3a, 4a, and 5a genotypes.

[1] = read-out: Range (EC50 values against HCV 1b)

| SMILES | EC50 [1] [nM] | EC50 (read-out: EC50) [nM] |
| --- | --- | --- |
| CC(C)(C)OC(=O)N1[C@@H]2C[C@@H]2C[C@H]1c1nc2ccc(-c3ccc4nc(-c5ccc6nc([C@@H]7C[C@H]8C[C@H]8N7C(=O)OC(C)(C)C)[nH]c6c5)ccc4c3)cc2[nH]1 [Intermediate 70, tert-Butyl(1R,3S,5R)-3-(5-(2-(2-((1R,3S,5R)-2-(tert-butoxycarbonyl)-2-azabicyclo[3.1.0]hex-3-yl)-1H-benzimidazol-6-yl)-6-quinolinyl)-1H-benzimidazol-2-yl)-2-azabicyclo[3.1.0]hexane-2-carboxylate] | 1.01 to 1000 | – |
| COC(=O)N[C@H](C(=O)N1C[C@@H](C)C[C@H]1c1ncc(-c2ccc(-c3ccc4nc(-c5cnc([C@@H]6C[C@H](C)CN6C(=O)[C@@H](NC(=O)OC)C6CCOCC6)[nH]5)ccc4c3)cc2)[nH]1)C1CCOCC1 [Example 114, Methyl((1S)-2-((2S,4S)-2-(4-(6-(4-(2-((2S,4S)-1-((2S)-2-((methoxycarbonyl)amino)-2-(tetrahydro-2H-pyran-4-yl)acetyl)-4-methyl-2-pyrrolidinyl)-1H-imidazol-4-yl)phenyl)-2-quinolinyl)-1H-imidazol-2-yl)-4-methyl-1-pyrrolidinyl)-2-oxo-1-(tetrahydro-2H-pyran-4-yl)ethyl)carbamate] | 0.0101 to 1 | – |
| COC(=O)N[C@H](C(=O)N1CCC[C@H]1c1ncc(-c2ccc3ccc(-c4ccc5nc([C@@H]6CCCN6C(=O)[C@@H](NC(=O)OC)C(C)C)[nH]c5c4)cc3c2)[nH]1)C(C)C [Example 17, Methyl((1S)-1-(((2S)-2-(4-(7-(2-((2S)-1-((2S)-2-((methoxycarbonyl)amino)-3-methylbutanoyl)-2-pyrrolidinyl)-1H-benzimidazol-5-yl)-2-naphthyl)-1H-imidazol-2-yl)-1-pyrrolidinyl)carbonyl)-2-methylpropyl)carbamate] | 1.01 to 1000 | – |
| COC(=O)NC(C(=O)N1[C@@H]2C[C@@H]2C[C@H]1c1ncc(C#Cc2ccc3cc(-c4cnc([C@@H]5C[C@H]6C[C@H]6N5C(=O)C(NC(=O)OC)C5CCOCC5)[nH]4)ccc3c2)[nH]1)C1CCOCC1 (stereo partly drawn) [Example 75, methyl(2-((1R,3S,5R)-3-(4-(6-((2-((1R,3S,5R)-2-(((methoxycarbonyl)amino)(tetrahydro-2H-pyran-4-yl)acetyl)-2-azabicyclo[3.1.0]hex-3-yl)-1H-imidazol-4-yl)ethynyl)-2-naphthyl)-1H-imidazol-2-yl)-2-azabicyclo[3.1.0]hex-2-yl)-2-oxo-1-(tetrahydro-2H-pyran-4-yl)ethyl)carbamate] | 1.01 to 1000 | 0.123 |
| COC(=O)N[C@H](C(=O)N1[C@@H]2C[C@@H]2C[C@H]1c1nc(Cl)c(-c2ccc3cc(-c4ccc5nc([C@@H]6C[C@H]7C[C@H]7N6C(=O)[C@@H](NC(=O)OC)C6CCOCC6)[nH]c5c4)ccc3c2)[nH]1)C1CCOCC1 [Example 50, Methyl((1S)-2-((1R,3S,5R)-3-(4-chloro-5-(6-(2-((1R,3S,5R)-2-((2S)-2-((methoxycarbonyl)amino)-2-(tetrahydro-2H-pyran-4-yl)acetyl)-2-azabicyclo[3.1.0]hex-3-yl)-1H-benzimidazol-5-yl)-2-naphthyl)-1H-imidazol-2-yl)-2-azabicyclo[3.1.0]hex-2-yl)-2-oxo-1-(tetrahydro-2H-pyran-4-yl)ethyl)carbamate] | 0.0101 to 1 | – |
| COC(=O)N[C@H](C(=O)N1C(c2ncc(-c3ccc4cc(-c5cccc(-c6c[nH]c([C@@H]7C[C@H]8C[C@H]8N7C(=O)[C@@H](NC(=O)OC)C(C)C)n6)c5)ccc4c3)[nH]2)CC2CC21)C(C)C (stereo in doubt) [Example 51, Methyl((1S)-1-(((1S,3R,5S)-3-(4-(6-(3-(2-((1R,3S,5R)-2-((2S)-2-((methoxycarbonyl)amino)-3-methylbutanoyl)-2-azabicyclo[3.1.0]hex-3-yl)-1H-imidazol-4-yl)phenyl)-2-naphthyl)-1H-imidazol-2-yl)-2-azabicyclo[3.1.0]hex-2-yl)carbonyl)-2-methylpropyl)carbamate] | 0.0101 to 1 | – |
| COC(=O)N[C@H](C(=O)N1CCC[C@H]1c1nc2ccc(-c3ccc4cc(-c5ccc6nc([C@@H]7CCCN7C(=O)[C@@H](NC(=O)OC)C(C)C)[nH]c6c5)ccc4c3)cc2[nH]1)C(C)C [Example 2, Methyl((1S)-1-(((2S)-2-(5-(6-(2-((2S)-1-((2S)-2-((methoxycarbonyl)amino)-3-methylbutanoyl)-2-pyrrolidinyl)-1H-benzimidazol-5-yl)-2-naphthyl)-1H-benzimidazol-2-yl)-1-pyrrolidinyl)carbonyl)-2-methylpropyl)carbamate] | – | 0.00218 |
| COC(=O)N[C@H](C(=O)N1CCC[C@@H]1c1nc2ncc(-c3ccc4cc(-c5cnc6nc([C@@H]7CCCN7C(=O)[C@@H](NC(=O)OC)C(C)C)[nH]c6c5)ccc4c3)cc2[nH]1)C(C)C [Example 23, Methyl((1S)-1-(((2R)-2-(6-(6-(2-((2S)-1-((2S)-2-((methoxycarbonyl)amino)-3-methylbutanoyl)-2-pyrrolidinyl)-1H-imidazo[4,5-b]pyridin-6-yl)-2-naphthyl)-1H-imidazo[4,5-b]pyridin-2-yl)-1-pyrrolidinyl)carbonyl)-2-methylpropyl)carbamate] | 0.0101 to 1 | 0.888 |
| CCN(CC)[C@@H](C(=O)N1[C@@H]2C[C@@H]2C[C@H]1c1nc2ccc(-c3ccc4cc(-c5ccc6nc([C@@H]7C[C@H]8C[C@H]8N7C(=O)[C@@H](c7ccccc7)N(CC)CC)[nH]c6c5)ccc4c3)cc2[nH]1)c1ccccc1 [Example 19, (1R)-2-((1R,3S,5R)-3-(5-(6-(2-((1R,3S,5R)-2-((2R)-2-(Diethylamino)-2-phenylacetyl)-2-azabicyclo[3.1.0]hex-3-yl)-1H-benzimidazol-6-yl)-2-naphthyl)-1H-benzimidazol-2-yl)-2-azabicyclo[3.1.0]hex-2-yl)-N,N-diethyl-2-oxo-1-phenylethanamine] | 0.0101 to 1 | – |
| COC(=O)N[C@H](C(=O)N1CCC[C@H]1c1nc2cc(-c3ccc4ccc(-c5ccc6nc([C@@H]7CCCN7C(=O)[C@@H](NC(=O)OC)C(C)C)[nH]c6c5)cc4c3)ccc2[nH]1)C(C)C [Example 1, Methyl((1S)-1-(((2S)-2-(5-(7-(2-((2S)-1-((2S)-2-((methoxycarbonyl)amino)-3-methylbutanoyl)-2-pyrrolidinyl)-1H-benzimidazol-5-yl)-2-naphthyl)-1H-benzimidazol-2-yl)-1-pyrrolidinyl)carbonyl)-2-methylpropyl)carbamate] | 1.01 to 1000 | – |
| COC(=O)N[C@H](C(=O)N1CCC[C@@H]1c1nc2nc(-c3ccc4cc(-c5cnc6[nH]c([C@H]7CCCN7C(=O)[C@@H](NC(=O)OC)C(C)C)nc6n5)ccc4c3)cnc2[nH]1)C(C)C [Example 25B, Methyl((1S)-1-(((2R)-2-(5-(6-(2-((2R)-1-((2S)-2-((methoxycarbonyl)amino)-3-methylbutanoyl)-2-pyrrolidinyl)-1H-imidazo[4,5-b]pyrazin-5-yl)-2-naphthyl)-1H-imidazo[4,5-b]pyrazin-2-yl)-1-pyrrolidinyl)carbonyl)-2-methylpropyl)carbamate] | 1.01 to 1000 | – |
| COC(=O)N[C@H](C(=O)N1CCC[C@H]1c1nc2ccc(-c3ccc4cc(-c5ccc6nc([C@@H]7CCCN7C(=O)[C@@H](NC(=O)OC)C7CCOCC7)[nH]c6c5)ccc4c3)cc2[nH]1)C(C)C [Example 27, Methyl((1S)-2-((2S)-2-(5-(6-(2-((2S)-1-((2S)-2-((methoxycarbonyl)amino)-3-methylbutanoyl)-2-pyrrolidinyl)-1H-benzimidazol-5-yl)-2-naphthyl)-1H-benzimidazol-2-yl)-1-pyrrolidinyl)-2-oxo-1-(tetrahydro-2H-pyran-4-yl)ethyl)carbamate] | – | 0.00477 |
| COC(=O)N[C@H](C(=O)N1[C@@H]2C[C@@H]2C[C@H]1c1nc2ccc(-c3ccc4cc(-c5ccc6cc(-c7ccc8nc([C@@H]9C[C@H]%10C[C@H]%10N9C(=O)[C@@H](NC(=O)OC)C(C)C)[nH]c8c7)ccc6c5)ccc4c3)cc2[nH]1)C(C)C [Example 46, Methyl((1S)-1-(((1R,3S,5R)-3-(5-(6′-(2-((1R,3S,5R)-2-((2S)-2-((methoxycarbonyl)amino)-3-methylbutanoyl)-2-azabicyclo[3.1.0]hex-3-yl)-1H-benzimidazol-5-yl)-2,2′-binaphthalen-6-yl)-1H-benzimidazol-2-yl)-2-azabicyclo[3.1.0]hex-2-yl)carbonyl)-2-methylpropyl)carbamate] | 1.01 to 1000 | 170 |
| COC(=O)N[C@H](C(=O)N1[C@@H]2C[C@@H]2C[C@H]1c1nc2ccc(-c3ccc4nc(-c5ccc6nc([C@@H]7C[C@H]8C[C@H]8N7C(=O)[C@@H](NC(=O)OC)C7CCOCC7)[nH]c6c5)ccc4c3)cc2[nH]1)C1CCOCC1 [Example 39, Dimethyl(2,6-quinolinediylbis(1H-benzimidazole-5,2-diyl(1R,3S,5R)-2-azabicyclo[3.1.0]hexane-3,2-diyl((1S)-2-oxo-1-(tetrahydro-2H-pyran-4-yl)-2,1-ethanediyl)))biscarbamate] | 0.0101 to 1 | – |
| COC(=O)N[C@H](C(=O)N(C)[C@@H](C)c1ncc(-c2ccc(-c3ccc4cc(-c5cnc([C@H](C)N(C)C(=O)[C@@H](NC(=O)OC)C(C)C)[nH]5)ccc4c3)cc2)[nH]1)C(C)C [Example 126, Methyl((1S)-1-(((1S)-1-(4-(4-(6-(2-((1S)-1-(((2S)-2-((methoxycarbonyl)amino)-3-methylbutanoyl)(methyl)amino)ethyl)-1H-imidazol-4-yl)-2-naphthyl)phenyl)-1H-imidazol-2-yl)ethyl)(methyl)carbamoyl)-2-methylpropyl)carbamate] | 0.0101 to 1 | 0.654 |
